Results from PubChem BioAssay AID1259407 (Chemical Carcinogenesis Research Information System (CCRIS), 2018).
The source made the active and inactive calls. The rule behind the calls is not given here.

System: CCRIS mutagenicity, Ames/micronucleus/aberration tests
Experiment: CCRIS mutagenicity studies

`O=c1ccc2ccccc2o1` was tested, and the mutagenic call (End Point: IN VITRO CHROMOSOMAL ABERRATIONS, Test System: CHINESE HAMSTER OVARY CELLS, Metabolic Activation: NONE) was “inactive; negative”, the mutagenic call (End Point: IN VITRO CHROMOSOMAL ABERRATIONS, Test System: CHINESE HAMSTER OVARY CELLS, Metabolic Activation: RAT, LIVER, S-9, AROCLOR 1254) was “active; positive” and the mutagenic call (End Point: IN VIVO MICRONUCLEUS, Test System: BONE MARROW CELLS, Species: MOUSE, Strain/Sex: SWISS/MALE, FEMALE, Route: GAVAGE) was “inactive; negative”. The mutagenic call (Test System: AMES SALMONELLA TYPHIMURIUM, Strain/Indicator: TA98, Metabolic Activation: HAMSTER, LIVER, S-9, AROCLOR 1254 (10%), Method: PREINCUBATION) was “inactive; negative”, the mutagenic call (Test System: AMES SALMONELLA TYPHIMURIUM, Strain/Indicator: TA98, Metabolic Activation: NONE, Method: FLUCTUATION (MICROTITER)) was “inactive; negative” and the mutagenic call (Test System: AMES SALMONELLA TYPHIMURIUM, Strain/Indicator: TA98, Metabolic Activation: NONE, Method: PREINCUBATION) was “inactive; negative”. For the same compound, the mutagenic call (Test System: AMES SALMONELLA TYPHIMURIUM, Strain/Indicator: TA98, Metabolic Activation: RAT LIVER S-9, AROCLOR 1254, Method: FLUCTUATION (MICROTITER)) was “inactive; negative”, the mutagenic call (Test System: AMES SALMONELLA TYPHIMURIUM, Strain/Indicator: TA98, Metabolic Activation: RAT, LIVER, S-9, AROCLOR 1254 (10%), Method: PREINCUBATION) was “inactive; negative” and the mutagenic call (Test System: AMES SALMONELLA TYPHIMURIUM, Strain/Indicator: TA100, Metabolic Activation: HAMSTER, LIVER, S-9, AROCLOR 1254 (10%), Method: PREINCUBATION) was “active; positive”. For the same compound, the mutagenic call (Test System: AMES SALMONELLA TYPHIMURIUM, Strain/Indicator: TA100, Metabolic Activation: NONE, Method: PREINCUBATION) was “inactive; negative”, the mutagenic call (Test System: AMES SALMONELLA TYPHIMURIUM, Strain/Indicator: TA1535, Metabolic Activation: HAMSTER, LIVER, S-9, AROCLOR 1254 (10%), Method: PREINCUBATION) was “inactive; negative” and the mutagenic call (Test System: AMES SALMONELLA TYPHIMURIUM, Strain/Indicator: TA1535, Metabolic Activation: NONE, Method: PREINCUBATION) was “inactive; negative”. The mutagenic call (Test System: AMES SALMONELLA TYPHIMURIUM, Strain/Indicator: TA1535, Metabolic Activation: RAT, LIVER, S-9, AROCLOR 1254 (10%), Method: PREINCUBATION) was “inactive; negative”, the mutagenic call (Test System: AMES SALMONELLA TYPHIMURIUM, Strain/Indicator: TA1537, Metabolic Activation: HAMSTER, LIVER, S-9, AROCLOR 1254 (10%), Method: PREINCUBATION) was “inactive; negative” and the mutagenic call (Test System: AMES SALMONELLA TYPHIMURIUM, Strain/Indicator: TA1537, Metabolic Activation: NONE, Method: FLUCTUATION (MICROTITER)) was “inactive; negative”. The mutagenic call (Test System: AMES SALMONELLA TYPHIMURIUM, Strain/Indicator: TA1537, Metabolic Activation: NONE, Method: PREINCUBATION) was “inactive; negative”, the mutagenic call (Test System: AMES SALMONELLA TYPHIMURIUM, Strain/Indicator: TA1537, Metabolic Activation: RAT LIVER S-9, AROCLOR 1254, Method: FLUCTUATION (MICROTITER)) was “inactive; negative” and the mutagenic call (Test System: AMES SALMONELLA TYPHIMURIUM, Strain/Indicator: TA1537, Metabolic Activation: RAT, LIVER, S-9, AROCLOR 1254 (10%), Method: PREINCUBATION) was “inactive; negative”. The mutagenic call (Test System: AMES SALMONELLA TYPHIMURIUM, Strain/Indicator: TA7001, Metabolic Activation: NONE, Method: FLUCTUATION (MICROTITER)) was “inactive; negative”, the mutagenic call (Test System: AMES SALMONELLA TYPHIMURIUM, Strain/Indicator: TA7001, Metabolic Activation: RAT LIVER S-9, AROCLOR 1254, Method: FLUCTUATION (MICROTITER)) was “inactive; negative” and the mutagenic call (Test System: AMES SALMONELLA TYPHIMURIUM, Strain/Indicator: TA7002, Metabolic Activation: NONE, Method: FLUCTUATION (MICROTITER)) was “inactive; negative”. The mutagenic call (Test System: AMES SALMONELLA TYPHIMURIUM, Strain/Indicator: TA7002, Metabolic Activation: RAT LIVER S-9, AROCLOR 1254, Method: FLUCTUATION (MICROTITER)) was “active; positive”, the mutagenic call (Test System: AMES SALMONELLA TYPHIMURIUM, Strain/Indicator: TA7003, Metabolic Activation: NONE, Method: FLUCTUATION (MICROTITER)) was “inactive; negative” and the mutagenic call (Test System: AMES SALMONELLA TYPHIMURIUM, Strain/Indicator: TA7003, Metabolic Activation: RAT LIVER S-9, AROCLOR 1254, Method: FLUCTUATION (MICROTITER)) was “inactive; negative”. For the same compound, the mutagenic call (Test System: AMES SALMONELLA TYPHIMURIUM, Strain/Indicator: TA7004, Metabolic Activation: NONE, Method: FLUCTUATION (MICROTITER)) was “inactive; negative”, the mutagenic call (Test System: AMES SALMONELLA TYPHIMURIUM, Strain/Indicator: TA7004, Metabolic Activation: RAT LIVER S-9, AROCLOR 1254, Method: FLUCTUATION (MICROTITER)) was “inactive; negative” and the mutagenic call (Test System: AMES SALMONELLA TYPHIMURIUM, Strain/Indicator: TA7005, Metabolic Activation: NONE, Method: FLUCTUATION (MICROTITER)) was “inactive; negative”. The mutagenic call (Test System: AMES SALMONELLA TYPHIMURIUM, Strain/Indicator: TA7005, Metabolic Activation: RAT LIVER S-9, AROCLOR 1254, Method: FLUCTUATION (MICROTITER)) was “inactive; negative”, the mutagenic call (Test System: AMES SALMONELLA TYPHIMURIUM, Strain/Indicator: TA7006, Metabolic Activation: NONE, Method: FLUCTUATION (MICROTITER)) was “inactive; negative” and the mutagenic call (Test System: AMES SALMONELLA TYPHIMURIUM, Strain/Indicator: TA7006, Metabolic Activation: RAT LIVER S-9, AROCLOR 1254, Method: FLUCTUATION (MICROTITER)) was “inactive; negative”. The mutagenic call (Test System: UDS HUMAN HEPATOCYTES, Strain/Indicator: THY INCORP, Metabolic Activation: NONE, Method: AUTORADIOGRAPHY) was “inactive; negative”.
For `CC1c2ccccc2-c2ccccc21`, the mutagenic call (Test System: AMES SALMONELLA TYPHIMURIUM, Strain/Indicator: TA100, Metabolic Activation: RAT, LIVER, S-9, AROCLOR 1254, Method: STANDARD PLATE) was “active; positive”.
